Experimental findings from US12565467B2, “Compounds, compositions, and methods for the treatment of inflammatory, degenerative, and neurodegenerative diseases” (Board of Supervisors of Louisiana State University and …, priority 2015, dated 2026) are described below.

One assay has as its system ARPE-19 cells. Kind of assay: Oxidative stress induced apoptosis / cell death in ARPE-19 cells. Type of assay: cell-based, human. As to conditions: for concentration dependent cytoprotection (FIG. 5C): ARPE-19 under OS. On the procedure: FIG. 5. (A) Effect of PD146176 on VLC-PUFA-inhibited apoptosis induced by OS in ARPE-19 cells. […] It is evident that 32:6 and 34:6 LCAF were able to induce a substantial amount (55 and 48% respectively) of neuroprotection compared to PD 146176 (22%) when the stressed cells were treated with 5 μm of 15-LOX-D1 inhibitor. It can be concluded that since PD146176 is the inhibitor of 15-lipooxygenase enzyme, it might be protecting the stressed RPE cells by accumulating neuroprotective agents inside the cells. (B) Comparison of cytoprotective capacities of NPD1, C32:6 and C34:6 VLC-PUFA on oxidative stress-induced apoptosis in 15-LOX-1 cells. Shown here is the comparison of neuroprotection in a 15-LOX-1-deficient cell line under oxidative stress with 32:6 and 34:6 VLC-PUFA along with NPD1. 32:6 and 34:6 LCAF were able to induce neuroprotection (45% and 40% respectively), as compared to oxidative stress (90%) under this condition. (C) Concentration dependent cytoprotection by C32:6 and C34:6 VLC-PUFA in oxidative-stress induced ARPE-19 cells. A concentration (50-500 nM) kinetic of cytoprotection induced by LCAF 32:6 and 34:6 in RPE cell culture under OS was shown here. […] We decided to use 250 nM concentrations of 32:6 and 34:6 LCAF in subsequent experiments. (D) Selected images of alive and dead cells from this study (control, OS, treatment with C32:6).
FIG. 5—(A) Effect of PD146176 on VLC-PUFA inhibited apoptosis induced by OS in ARPE-19 cells. […] It is evident that 32:6 and 34:6 LCAF were able to induce a substantial amount (55 and 48% respectively) of neuroprotection compared to PD 146176 (22%) when the stressed cells were treated with 5 μm of 15-LOX-D1 inhibitor. It can be concluded that since PD146176 is the inhibitor of 15-lipooxygenase enzyme, it might be protecting the stressed RPE cells by accumulating neuroprotective agents inside the cells. (B) Comparison of cytoprotective capacities of NPD1, C32:6 and C34:6 VLC-PUFA on oxidative stress-induced apoptosis in 15-LOX-1 cells. Shown here is the comparison of neuroprotection in a 15-LOX-1-deficient cell line under oxidative stress with 32:6 and 34:6 VLC-PUFA along with NPD1. 32:6 and 34:6 VLC-PUFA were able to induce neuroprotection (45% and 40% respectively), as compared to oxidative stress (90%) under this condition. (C) Concentration dependent cytoprotection by C32:6 and C34:6 VLC-PUFA in oxidative-stress induced ARPE-19 cells. A concentration (50-500 nM) kinetic of cytoprotection induced by VLC-PUFA 32:6 and 34:6 in RPE cell culture under OS was shown here. […] We decided to use 250 nM concentrations of 32:6 and 34:6 VLC-PUFA in subsequent experiments. (D) Selected images of alive and dead cells from this study (control, OS, treatment with C32:6).

Another assay has as its system SIRT1. Kind of assay: SIRT1 abundance in ARPE-19 cells under oxidative stress. Type of assay: cell-based. The settings on record: ARPE-19 / human RPE cells confronted with OS. The source says:
FIG. 10. (A) Effect of NPD1 and VLC-PUFA C32:6 and C34:6 in mediating upregulation of SIRT1 in ARPE-19 cells. (B) Quantification of SIRT1 upregulation by NPD1, C32:6 and C34:6. SIRT1 (Sirtuin1) belongs to a family of highly conserved proteins linked to caloric restriction beneficial outcomes and aging by regulating energy metabolism, genomic stability and stress resistance. SIRT1 is a potential therapeutic target in several diseases including cancer, diabetes, inflammatory disorders, and neurodegenerative diseases or disorders. Elovanoids induce cell survival involving the upregulation of the Bcl2 class of survival proteins and the downregulation of pro-apoptotic Bad and Bax under oxidative stress (OS) in RPE cells. […] As a consequence, remarkable cell survival takes place. This target of elovanoids might be relevant to counteract consequences of several diseases associated with SIRT1.
FIG. 10—(A) Effect of NPD1 and VLC-PUFA C32:6 and C34:6 in mediating upregulation of SIRT1 in ARPE-19 cells. (B) Quantification of SIRT1 upregulation by NPD1, C32:6 and C34:6. SIRT1 (Sirtuin1) belongs to a family of highly conserved proteins linked to caloric restriction beneficial outcomes and aging by regulating energy metabolism, genomic stability and stress resistance. […]

Another assay relates to Bcl2. Description: Bcl2 protein in RPE (LOX-D / ARPE-19) cells under oxidative stress. Format: cell-based, human. The source says: FIG. 9. (A) VLC-PUFA and elovanoids ELV1 and ELV2 mediated effect on Bcl2 upregulation in ARPE-19 cells under stress. In this experiment we tested the effect of elovanoid precursors on Bcl2 upregulation along with VLC-PUFA in stressed RPE. (B) Quantification of Bcl2 upregulation by NPD1, ELV1 and ELV2 in LOX-D cells. Bcl2 is an important antiapoptotic protein of the Bcl2 family protein.
FIG. 9—(A) VLC-PUFA and elovanoids ELV1 and ELV2 mediated effect on Bcl2 upregulation in ARPE-19 cells under stress. In this experiment we tested the effect of elovaniod precursors on Blc2 upregulation along with VLC-PUFA in stressed RPE. (B) Quantification of Bcl2 upregulation by NPD1, ELV1 and ELV2 in LOX-D cells. Bcl2 is an important antiapoptotic protein of the Bcl2 family protein.

For the molecule `CC/C=C\C/C=C\C/C=C\C/C=C\C/C=C\C/C=C\CCCCCCCCCCCCCCC(=O)O` [C34:6], the “concentration dependent cytoprotection (FIG. 5C)” value is on record as “very good intermediate effect” in the assay with ARPE-19 cells (250 nM), “maximum effect” with ARPE-19 cells (500 nM) and “gradual decrease of cell deaths” with ARPE-19 cells (starting from 50 nM). The “protection against OS in RPE cells (summary, FIGS. 4-10)” value in the assay with ARPE-19 cells (RPE cells) is recorded as “protective against OS”. In the assay on ARPE-19 cells (stressed ARPE-19 cells treated with 5 μm of 15-LOX-D1 inhibitor PD146176), the “neuroprotection (FIG. 5A)” value was 48%. Further, in the assay on SIRT1, the “effect on SIRT1 abundance (FIG. 10)” value is “mediate the upregulation of SIRT1”.
Turning to `CC/C=C\C[C@H](O)\C=C/C=C/C=C/[C@H](O)C/C=C\C/C=C\CCCCCCCCCCCCCCC(=O)O` [ELV2, (16Z,19Z,22R,23E,25E,27Z,29S,31Z)-22,29-dihydroxytetratriaconta-16,19,23,25,27,31-hexaenoic acid], the “effect on Bcl2 protein (FIG. 9)” value in the assay with Bcl2 is “potent upregulation”.
